Measured values as given in patent publication EP4371976B1, “IONIZABLE LIPIDS AND LIPID NANOPARTICLES CONTAINING THEREOF” (Certest Biotec, S.L., priority 2022, dated 2024).

How the values were obtained:
[1] = RNA encapsulation efficiency of LNPs by Quant-IT Ribogreen; assay type: physicochemical; settings: LNPs with luciferase mRNA; ionizable lipid:non-cationic lipid:sterol:PEG-modified lipid 50:10:38.5:1.5; percentage of RNA entrapped in the LNP
Experimental: The mRNA aqueous solution was then carefully added to the ethanol solution, and the resulted solution was homogenized by pipetting up and down for 4-5 times. The resulting LNPs were immediately diluted 1:1 with Tris buffer and dialyzed overnight against Tris buffer containing 15% sucrose. The resulting LNP solution was then collected, and the encapsulated mRNA was assessed by Quant-IT® Ribogreen (Invitrogen R11490) following the manufacturer's instructions.
(§1) The LNP solution was then adjusted to a final concentration of mRNA of 100 µg/ml. Size distribution, polydispersity and Z-potential were measured by dynamic light scattering (DLS) using Malvern Zetasizer Advance Lab Blue Label. RNA encapsulation was assessed by Quant-IT® Ribogreen following the manufacturer's instructions.

[2] = Size distribution, polydispersity and Z-potential of LNPs by dynamic light scattering (Malvern Zetasizer); assay type: physicochemical; settings: LNPs, standard formulation 50:10:38.5:1.5; DLS
Experimental: as §1

Encaps. efficiency (%) [1] | Z Potential (± D.E.) [mV] [2] | P.D.I. [2] | Particle size/ Ø (nm) [2] | SMILES
98.48% | 0.00 mV |  |  | CCCCCCCCCCCCCOC(=O)CCSCCC(NC(=O)C(CCCCCC)CCCCCCCC)C(=O)NCCCN(C)C (centres unmarked) [VC-LC-0099]
100.00% | 0.00 mV |  |  | CCCCCCCCCCCCOC(=O)CCSCCC(NC(=O)C(CCCCCC)CCCCCCCC)C(=O)NCCCN(C)C (centres unmarked) [VC-LC-0103]
100.00% | 0.00 mV |  |  | CCCCCCCCCCCCCCOC(=O)CCSCCC(NC(=O)C(CCCCCC)CCCCCCCC)C(=O)NCCCN(C)C (centres unmarked) [VC-LC-0104]
98.70% | 0.00 mV |  |  | CCCCCCCCCCCCCCCCOC(=O)CCSCCC(NC(=O)C(CCCCCC)CCCCCCCC)C(=O)NCCCN(C)C (centres unmarked) [VC-LC-0106]
100.00% | 0.00 mV |  |  | CCCCCCCCC(CCCCCC)C(=O)NC(CCSCCC(=O)OCCCCCC(C)C)C(=O)NCCCN(C)C (centres unmarked) [VC-LC-0107]
45.16% | -26.69 mV | 0.21 | 181.9 nm | CCCCCCCCC(CCCCCC)C(=O)NC(CCSCCC(=O)OCCCCCCCC(C)C)C(=O)NCCCN1CCOCC1 (centres unmarked) [VC-LC-0165]
42.53% | -24.55 mV | 0.11 | 164.8 nm | CCCCCCCCC(CCCCCC)C(=O)NC(CCSCCC(=O)OCC(CC)CCCC)C(=O)NCCCN1CCOCC1 (centres unmarked) [VC-LC-0166]
53.65% | -23.07 mV | 0.24 | 228.8 nm | CCCCCCCCC(CCCCCC)C(=O)NC(CCSCCC(=O)OCCCCCC(C)C)C(=O)NCCCN1CCOCC1 (centres unmarked) [VC-LC-0171]
23.97% | -15.84 mV | 0.09 | 120 nm | CCCCCCCCC(CCCCCC)C(=O)NC(CCSCCC(=O)OCCCCCC)C(=O)NCCCN1CCOCC1 (centres unmarked) [VC-LC-0175]
87.95% | -4.28 mV | 0.19 | 197.5 nm | CCCCCCCCC(CCCCCC)C(=O)NC(CCSCCC(=O)OCCCCCCCC(C)C)C(=O)NCCN1CCN(C)CC1 (centres unmarked) [VC-LC-0180]
85.48% | -6.47 mV | 0.35 | 206.7 nm | CCCCCCCCC(CCCCCC)C(=O)NC(CCSCCC(=O)OCC(CC)CCCC)C(=O)NCCN1CCN(C)CC1 (centres unmarked) [VC-LC-0181]
91.18% | -2.72 mV | 0.22 | 217.1 nm | CCCCCCCCCCCCOC(=O)CCSCCC(NC(=O)C(CCCCCC)CCCCCCCC)C(=O)NCCN1CCN(C)CC1 (centres unmarked) [VC-LC-0182]
86.70% | 3.38 mV | 0.18 | 158.7 nm | CCCCCCCCC(CCCCCC)C(=O)NC(CCSCCC(=O)OCCCCCC(C)C)C(=O)NCCN1CCN(C)CC1 (centres unmarked) [VC-LC-0186]
87.02% | 4.77 mV | 0.11 | 135.2 nm | CCCCCCCCOC(=O)CCSCCC(NC(=O)C(CCCCCC)CCCCCCCC)C(=O)NCCN1CCN(C)CC1 (centres unmarked) [VC-LC-0191]
90.54% | 1.39 mV | 0.22 | 262.2 nm | CCCCCCCCC(CCCCCC)C(=O)NC(CCSCCC(=O)OCC(CC)CCCC)C(=O)NCCCN(CCO)CCO (centres unmarked) [VC-LC-0197]
83.35% | -20.85 mV | 0.26 | 179 nm | CCCCCCCCC(CCCCCC)C(=O)NC(CCSCCC(=O)OCC(CC)CCCC)C(=O)NC1CCN(C)CC1 (centres unmarked) [VC-LC-0212]
72.79% | -2.41 mV | 0.14 | 156.7 nm | CCCCCCCCC(CCCCCC)C(=O)NC(CCSCCC(=O)OCCCCCC(C)C)C(=O)NC1CCN(C)CC1 (centres unmarked) [VC-LC-0217]
93.35% | 2.43 mV | 0.18 | 197.6 nm | CCCCCCCCC(CCCCCC)C(=O)NC(CCSCCC(=O)OCCCCCCCC(C)C)C(=O)NCCCN1CCCC1 (centres unmarked) [VC-LC-0243]
53.57% | 1.09 mV | 0.16 | 175 nm | CCCCCCCCC(CCCCCC)C(=O)NC(CCSCCC(=O)OCC(CC)CCCC)C(=O)NCCCN1CCCC1 (centres unmarked) [VC-LC-0244]
94.64% | 5.96 mV | 0.16 | 177.3 nm | CCCCCCCCCCCCOC(=O)CCSCCC(NC(=O)C(CCCCCC)CCCCCCCC)C(=O)NCCCN1CCCC1 (centres unmarked) [VC-LC-0245]
44.25% | -17.24 mV | 0.18 | 161.7 nm | CCCCCCCCCCCCOC(=O)CCSCCC(NC(=O)C(CCCCCC)CCCCCCCC)C(=O)NCCCn1ccnc1 (centres unmarked) [VC-LC-0260]
65.74% | -10.37 mV | 0.09 | 160.7 nm | CCCCCCCCCCCCCOC(=O)CCSCC(CC(=O)NCCCn1ccnc1)C(=O)OC(CCCCCCCC)CCCCCCCC (centres unmarked) [VC-LC-0294]
36.51% | -9.75 mV | 0.17 | 156.9 nm | CCCCCCCCCCCCCCCCCCOC(=O)CCSCC(CC(=O)NCCCn1ccnc1)C(=O)OC(CCCCCCCC)CCCCCCCC (centres unmarked) [VC-LC-0300]
54.05% | -23.20 mV | 0.26 |  | CCCCCCCCCCCCCCCCCCCCCCOC(=O)CCSCC(CC(=O)NCCCn1ccnc1)C(=O)OC(CCCCCCCC)CCCCCCCC (centres unmarked) [VC-LC-0304]

SMILES | Encaps. efficiency (%) [1] | Z Potential (± D.E.) [mV] [2] | P.D.I. [2] | Particle size/ Ø (nm) [2]
CCCCCCCCCCCCCCCCOC(=O)CCSCCC(NC(=O)C(CCCCCC)CCCCCCCC)C(=O)NCCCN1CCOCC1 (centres unmarked) [VC-LC-0170] | 56.36% | -22.79 mV |  | 266.4 nm
CCCCCCCCCCCCCCCCOC(=O)CCSCCC(NC(=O)C(CCCCCC)CCCCCCCC)C(=O)NCCCN(CCO)CCO (centres unmarked) [VC-LC-0201] | 86.70% | 2.80 mV |  | 259.7 nm
CCCCCCCCC(CCCCCC)C(=O)NC(CCSCCC(=O)OCCCCCC)C(=O)NCCCN(CCO)CCO (centres unmarked) [VC-LC-0206] | 82.26% | -2.86 mV | 0.17 | 179.9 nm
CCCCCCCCC(CCCCCC)C(=O)NC(CCSCCC(=O)OCCCCCCCC(C)C)C(=O)NC1CCN(C)CC1 (centres unmarked) [VC-LC-0211] | 67.87% | -4.59 mV | 0.14 | 181 nm
CCCCCCCCCCCCCCCCOC(=O)CCSCCC(NC(=O)C(CCCCCC)CCCCCCCC)C(=O)NC1CCN(C)CC1 (centres unmarked) [VC-LC-0216] | 52.13% | -20.53 mV | 0.35 | 
CCCCCCCCOC(=O)CCSCCC(NC(=O)C(CCCCCC)CCCCCCCC)C(=O)NCCCn1ccnc1 (centres unmarked) [VC-LC-0269] | 36.60% | -10.28 mV | 0.15 | 176.7 nm
CCCCCCCC/C=C\CCCCCCCC(=O)NC(CCSCCC(=O)OCCCCCCCCCCCCCCCC)C(=O)NCCCN(CCO)CCO (centres unmarked) [VC-LC-0290] | 56.36% | -22.79 mV |  | 266.4 nm
CCCCCCCC/C=C\CCCCCCCC(=O)NC(CCSCCC(=O)OCCCCCC(C)C)C(=O)NCCCN(CCO)CCO (centres unmarked) [VC-LC-0293] | 92.48% | 12.29 mV | 0.13 | 178.6 nm
CCCCCCCC/C=C\CCCCCCCC(=O)NC(CCSCCC(=O)OCCCCCCCCCCCCC)C(=O)NC1CCN(C)CC1 (centres unmarked) [VC-LC-0322] | 97.01% | 2.31 mV | 0.17 | 220.5 nm
CCCCCCCC/C=C\CCCCCCCC(=O)NC(CCSCCC(=O)OCCCCCCCCCCCC)C(=O)NC1CCN(C)CC1 (centres unmarked) [VC-LC-0326] | 99.06% | 7.00 mV | 0.25 | 181.9 nm
CCCCCCCC#CCOC(=O)CCSCCC(NC(=O)CCCCCCC/C=C\CCCCCCCC)C(=O)NCCCN1CCOCC1 (centres unmarked) [VC-LC-0354] | 68.28% | -0.57 mV | 0.13 | 234.3 nm
CCCCCCCCCCCCCCCCCCCCCCOC(=O)CCSCCC(C(=O)NCCCn1ccnc1)C(=O)OC(CCCCCCCC)CCCCCCCC (centres unmarked) [VC-LC-0363] | 63.87% | -17.92 mV | 0.18 | 143.9 nm
CCCCCCCCCCCCCCCCCCOC(=O)CCSCCC(C(=O)NCCCn1ccnc1)C(=O)OC(CCCCCCCC)CCCCCCCC (centres unmarked) [VC-LC-0368] | 89.08% | -15.81 mV | 0.1 | 140.9 nm
CCCCCCCCC(CCCCCCCC)OC(=O)C(CCSCCC(=O)OCCCCCC(C)C)C(=O)NCCCn1ccnc1 (centres unmarked) [VC-LC-0370] | 62.48% | -7.08 mV | 0.21 | 134.7 nm
